Reference: PMC11891622 (Angewandte Chemie (International Ed. in English), 2025)
“Also recorded” adds a separate entry of the source. Where two headings read alike, the source gives them in different places.

Tests used:
[1] = target: SARS-CoV-2 Nucleocapsid protein N-terminal globular domain NTD (44–180) (Severe acute respiratory syndrome coronavirus 2, UniProt P0DTC9); assay type: binding
[2] = tested on: SARS-CoV-2 Nucleocapsid protein NTR (1–248) (NTD plus two flanking IDRs); assay type: binding; conditions: for peaks of poly-L region (216–225): 0.25 equiv. of the chimaera

Ac‐Glu‐Gly‐Glu‐Gly‐Glu‐Gly‐Gly‐Glu‐gggg‐Glu‐Gly‐Gly‐Glu‐Gly‐Glu‐(β‐Ala)‐Glu [P-PNA]
CSP magnitude, chimaera versus peptide P [1]: CSP for the same residues are more pronounced in the case of the chimaera adduct; also recorded: chemical shift perturbation values are clearly higher for the chimeric molecule | affinity compared with gRNA fragments / oligonucleotides [1]: despite larger, is not significantly distant from those reported in the literature for studies conducted with gRNA fragments; also recorded: lower than that of some oligonucleotides of similar length | affinity compared with the peptide / chimaera counterpart [1]: superior affinity over the pure peptide precursor; also recorded: higher affinity for an RNA‐binding protein, such as the nucleocapsid protein of SARS‐CoV‐2, compared to a pure designed peptide | CSP pattern: location of most affected residues ([1]; pH 6.5): predominantly cluster within three main regions, as reported in Figure 2B and 2C, very similar to those identified when interacting with RNA | exchange regime on the NMR time scale ([1]; pH 6.5): an interaction taking place in a fast exchange regime on the NMR time scale | peaks of poly-L region (216–225) ([2]; 70 µM NTR1-248, pH 6.5, 298 K, listed as P‐PNA): several cross peaks disappearing at only 0.25 equiv. of ligand added | peaks of poly-L region (216–225) ([2]; 70 µM NTR1-248, pH 6.5, 298 K, listed as chimaera): disappeared immediately after the addition of only 0.25 equiv. of the chimaera | major CSPs on the NTD (44–180) region within NTR (1–248) ([2]; CSP at 1 equiv. P-PNA, 70 µM NTR1-248, pH 6.5, 298 K): identified once again in the basic finger of NTD (44–180) | similarity of affected regions to those with RNA fragments ([2]; NTR (1–248), comparison with ref [22], [24]): the regions that are most affected by the interaction are similar to those identified when studying the interaction of NTR (1–248) with RNA fragments | most perturbed residues, IDR2 (181–248) SR-rich region (177–203) ([2]; pH 6.5): the SR‐rich region, which shows the highest CSP values; also recorded: The most perturbed residues are found in the SR‐rich region (177–203 | intensity of NTD (44–180) peaks within NTR (1–248) ([2]; upon addition of the chimaera, 70 µM NTR1-248, pH 6.5, 298 K): several peaks of NTD (44–180) decrease in intensity or disappear completely
